Data published in PubChem BioAssay (NCI).
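Dose response: 5 concentrations. Exposure: 48 h. Format: 96-well plates. Endpoint: linear interpolation; highest concentration if not reached. GI50 is the concentration that inhibits growth by half. Definition used: TGI = concentration required for complete inhibition of growth.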

Experiments:
Assay in all cases: inhibition of tumour cell growth, NCI panel, 48 h
786-0 renal = test system: 786-0 renal
A498 renal = test system: A498 renal
A549 NSCLC = test system: A549 NSCLC
ACHN renal = test system: ACHN renal
BT-549 breast = test system: BT-549 breast
CAKI-1 renal = test system: CAKI-1 renal
CCRF-CEM leukemia = test system: CCRF-CEM leukemia
COLO 205 colon = test system: COLO 205 colon
DU-145 prostate = test system: DU-145 prostate
EKVX NSCLC = test system: EKVX NSCLC
HCC-2998 colon = test system: HCC-2998 colon
HCT-116 colon = test system: HCT-116 colon
HCT-15 colon = test system: HCT-15 colon
HL-60(TB) leukemia = test system: HL-60(TB) leukemia
HOP-62 NSCLC = test system: HOP-62 NSCLC
HOP-92 NSCLC = test system: HOP-92 NSCLC
HS 578T breast = test system: HS 578T breast
HT29 colon = test system: HT29 colon
IGROV1 ovarian = test system: IGROV1 ovarian
K-562 leukemia = test system: K-562 leukemia
KM12 colon = test system: KM12 colon
LOX IMVI melanoma = test system: LOX IMVI melanoma
M14 melanoma = test system: M14 melanoma
MALME-3M melanoma = test system: MALME-3M melanoma
MCF7 breast = test system: MCF7 breast
MDA-MB-231 breast = test system: MDA-MB-231 breast
MDA-MB-435 = test system: MDA-MB-435
MOLT-4 leukemia = test system: MOLT-4 leukemia
NCI-H226 lung = test system: NCI-H226 lung
NCI-H23 lung = test system: NCI-H23 lung
NCI-H460 lung = test system: NCI-H460 lung
NCI-H522 lung = test system: NCI-H522 lung
NCI/ADR-RES ovarian = test system: NCI/ADR-RES ovarian
OVCAR-3 ovarian = test system: OVCAR-3 ovarian
OVCAR-4 ovarian = test system: OVCAR-4 ovarian
OVCAR-5 ovarian = test system: OVCAR-5 ovarian
OVCAR-8 ovarian = test system: OVCAR-8 ovarian
PC-3 prostate = test system: PC-3 prostate
RPMI-8226 leukemia = test system: RPMI-8226 leukemia
RXF 393 renal = test system: RXF 393 renal
SF-268 CNS = test system: SF-268 CNS
SF-295 CNS = test system: SF-295 CNS
SF-539 CNS = test system: SF-539 CNS
SK-MEL-2 melanoma = test system: SK-MEL-2 melanoma
SK-MEL-28 melanoma = test system: SK-MEL-28 melanoma
SK-MEL-5 melanoma = test system: SK-MEL-5 melanoma
SK-OV-3 ovarian = test system: SK-OV-3 ovarian
SN12C renal = test system: SN12C renal
SNB-19 CNS = test system: SNB-19 CNS
SNB-75 CNS = test system: SNB-75 CNS
SR leukemia = test system: SR leukemia
SW-620 colon = test system: SW-620 colon
T-47D breast = test system: T-47D breast
TK-10 renal = test system: TK-10 renal
U251 CNS = test system: U251 CNS
UACC-257 melanoma = test system: UACC-257 melanoma
UACC-62 melanoma = test system: UACC-62 melanoma
UO-31 renal = test system: UO-31 renal

## CSc1ccc(/C(=N/N=C(N)N)c2ccc(F)cc2)cc1
786-0 renal
  GI50: 802 nM
  TGI: 12.5 µM
A498 renal
  GI50: 390 nM
  TGI: 2960 nM
A549 NSCLC
  GI50: 480 nM
  TGI: 10.6 µM
ACHN renal
  GI50: 724 nM
  TGI: 10.5 µM
BT-549 breast
  GI50: 5.6 µM
  TGI: 17.1 µM
CAKI-1 renal
  GI50: 536 nM
  TGI: 4.82 µM
CCRF-CEM leukemia
  GI50: 414 nM
  TGI: 15.7 µM
COLO 205 colon
  GI50: 415 nM
  TGI: 1770 nM
DU-145 prostate
  GI50: 415 nM
  TGI: 3.84 µM
EKVX NSCLC
  GI50: 600 nM
  TGI: 13.3 µM
HCC-2998 colon
  GI50: 314 nM
  TGI: 1180 nM
HCT-116 colon
  GI50: 346 nM
  TGI: 4.58 µM
HCT-15 colon
  GI50: 341 nM
  TGI: 9.85 µM
HL-60(TB) leukemia
  GI50: 273 nM
  TGI: 873 nM
HOP-62 NSCLC
  GI50: 755 nM
  TGI: 9.2 µM
HOP-92 NSCLC
  GI50: 797 nM
  TGI: 6.11 µM
HS 578T breast
  GI50: 872 nM
  TGI: 10.5 µM
HT29 colon
  GI50: 350 nM
  TGI: 5.47 µM
IGROV1 ovarian
  GI50: 421 nM
  TGI: 3.47 µM
K-562 leukemia
  GI50: 336 nM
  TGI: 6.52 µM
KM12 colon
  GI50: 423 nM
  TGI: 11.7 µM
LOX IMVI melanoma
  GI50: 324 nM
  TGI: 1550 nM
M14 melanoma
  GI50: 308 nM
  TGI: 1100 nM
MALME-3M melanoma
  GI50: 1010 nM
  TGI: 3.25 µM
MCF7 breast
  GI50: 358 nM
  TGI: 3.69 µM
MDA-MB-231 breast
  GI50: 807 nM
  TGI: 10 µM
MDA-MB-435
  GI50: 230 nM
  TGI: 551 nM
MOLT-4 leukemia
  GI50: 533 nM
  TGI: 10.9 µM
NCI-H226 lung
  GI50: 1850 nM
  TGI: 14.7 µM
NCI-H23 lung
  GI50: 328 nM
  TGI: 3.87 µM
NCI-H460 lung
  GI50: 367 nM
  TGI: 3.4 µM
NCI-H522 lung
  GI50: 392 nM
  TGI: 11.7 µM
NCI/ADR-RES ovarian
  GI50: 1660 nM
  TGI: 7.25 µM
OVCAR-3 ovarian
  GI50: 406 nM
  TGI: 9.68 µM
OVCAR-4 ovarian
  GI50: 982 nM
  TGI: 15.6 µM
OVCAR-5 ovarian
  GI50: 651 nM
  TGI: 12.7 µM
OVCAR-8 ovarian
  GI50: 1290 nM
  TGI: 14.9 µM
PC-3 prostate
  GI50: 466 nM
  TGI: 11.4 µM
RPMI-8226 leukemia
  GI50: 468 nM
  TGI: 3.16 µM
RXF 393 renal
  GI50: 189 nM
  TGI: 708 nM
SF-268 CNS
  GI50: 787 nM
  TGI: 11.6 µM
SF-295 CNS
  GI50: 304 nM
  TGI: 10.5 µM
SF-539 CNS
  GI50: 367 nM
  TGI: 1650 nM
SK-MEL-2 melanoma
  GI50: 2670 nM
  TGI: 17.5 µM
SK-MEL-28 melanoma
  GI50: 1410 nM
  TGI: 11.6 µM
SK-MEL-5 melanoma
  GI50: 393 nM
  TGI: 1490 nM
SK-OV-3 ovarian
  GI50: 780 nM
  TGI: 15.5 µM
SN12C renal
  GI50: 672 nM
  TGI: 10 µM
SNB-19 CNS
  GI50: 424 nM
  TGI: 12.5 µM
SNB-75 CNS
  GI50: 342 nM
  TGI: 5.56 µM
SR leukemia
  GI50: 360 nM
  TGI: 1800 nM
SW-620 colon
  GI50: 457 nM
  TGI: 9.76 µM
T-47D breast
  GI50: 560 nM
  TGI: 11.7 µM
TK-10 renal
  GI50: 2920 nM
  TGI: 17.2 µM
U251 CNS
  GI50: 415 nM
  TGI: 7.13 µM
UACC-257 melanoma
  GI50: 1460 nM
  TGI: 11.2 µM
UACC-62 melanoma
  GI50: 417 nM
  TGI: 7.3 µM
UO-31 renal
  GI50: 856 nM
  TGI: 4.45 µM
